Measurements reported in ChEMBL document CHEMBL1129231, “Bone targeted drugs 2. synthesis of estrogens with hydroxyapatite affinity” (Bioorg Med Chem Lett, 1996).

Tests used:
Ishikawa = assay: Agonist activity in Ishikawa human endometrial cells; format: functional, cell-based
[1] = target: Estrogen receptor (Rattus norvegicus) (UniProt P06211+Q62986); assay: Relative efficacy for estrogen receptor compared to estradiol; format: protein assay
Estrogen receptor = Estrogen receptor (Rattus norvegicus, UniProt P06211+Q62986); assay: Binding affinity for rat estrogen receptor; format: protein assay

**Q.** How did the EC50 (Ishikawa) turn out when CC[C@H](c1ccc(O)cc1)[C@@H](CC)c1ccc(O)cc1 [HEXESTROL] was run?
**A.** 0.1 nM

**Q.** And the Emax [1]?
**A.** 80%

**Q.** What about the IC50 (Estrogen receptor) of the same molecule?
**A.** 0.002 µM

**Q.** Which EC50 (Ishikawa) does the source give for CC[C@@H](c1ccc(O)cc1)[C@H](CCCCn1cc(C(=O)O)c(=O)[nH]1)c1ccc(O)cc1 here?
**A.** 1100 nM

**Q.** What about the IC50 (Estrogen receptor) of the same molecule?
**A.** 5 µM

**Q.** Which EC50 (Ishikawa) does the source give for CC[C@@H](c1ccc(O)cc1)[C@H](Cn1cc(C(=O)O)c(=O)[nH]1)c1ccc(O)cc1 here?
**A.** 20000 nM

**Q.** And the IC50 (Estrogen receptor)?
**A.** 100 µM

**Q.** Which EC50 (Ishikawa) does the source give for CC[C@@H](c1ccc(O)cc1)[C@H](CCCCn1cc(C(=O)O)cn1)c1ccc(O)cc1 here?
**A.** 1600 nM
